# Test system: NL-RLuc virus
# Assay: Inhibition of HIV replication (NL-RLuc virus, luciferase readout in MT-2 cells)
# Assay type: cell-based
# Conditions: Human immunodeficiency virus 1, MT2, 120 h, MT-2 cells infected with NL-RLuc virus, 5 days of incubation, 10% FBS, at least 2 experiments
# Procedure, shortened: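 MT-2 cells infected with NL4-3-derived virus carrying Renilla luciferase in place of part of nef, grown 5 days with serial compound dilutions in RPMI 1640/10% FBS. Virus growth read as luciferase expression. EC50 from median effect equation, at least 2 experiments.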
row,SMILES,EC50
1,"CC1(C)CCN(c2c(-c3ccc(OCCc4ccc(F)cc4)cc3)cnc(Cl)c2[C@H](OC(C)(C)C)C(=O)O)CC1 [Example 211, (S)-2-(tert-Butoxy)-2-(2-chloro-4-(4,4-dimethylpiperidin-1-yl)-5-(4-(4-fluorophenethoxy)phenyl)pyridin-3-yl)acetic acid]",3 nM
2,"COc1nc(OCC(C)C)ccc1-c1cnc(C)c([C@H](OC(C)(C)C)C(=O)O)c1N1CCC(C)(C)CC1 [Example 413, (S)-2-(tert-Butoxy)-2-(4-(4,4-dimethylpiperidin-1-yl)-6′-isobutoxy-2′-methoxy-6-methyl-[3,3′-bipyridin]-5-yl)acetic acid]",16 nM
3,"COc1cnc(-c2cnc(C)c([C@H](OC(C)(C)C)C(=O)O)c2N2CCC(C)(C)CC2)nc1 [Example 228, (S)-2-(tert-Butoxy)-2-(4-(4,4-dimethylpiperidin-1-yl)-5-(5-methoxypyrimidin-2-yl)-2-methylpyridin-3-yl)acetic acid]",52 nM
4,"CCCCNc1ccc(-c2cnc(C)c([C@H](OC(C)(C)C)C(=O)O)c2N2CCC(C)(C)CC2)cn1 [Example 437, (S)-2-tert-Butoxy-2-(6′-(butylamino)-4-(4,4-dimethylpiperidin-1-yl)-6-methyl-3, 3′-bipyridin-5-yl)acetic acid]",9 nM
5,"Cc1ncc(-c2ccc(OCCc3ccccc3)cc2)c(N2CCC(C)(C)CC2)c1[C@H](OC(C)(C)C)C(=O)O [Example 265, (S)-2-(tert-Butoxy)-2-(4-(4,4-dimethylpiperidin-1-yl)-2-methyl-5-(4-phenethoxyphenyl)pyridin-3-yl)acetic acid]",1 nM
6,"Cc1ncc(-c2cnc(OCCC(C)(C)C)c(F)c2)c(N2CCC(C)(C)CC2)c1[C@H](OC(C)(C)C)C(=O)O [Example 376, (2S)-2-(tert-butoxy)-2-[6′-(3,3-dimethylbutoxy)-4-(4,4-dimethylpiperidin-1-yl)-5′-fluoro-6-methyl-[3,3′-bipyridine]-5-yl]acetic acid]",5 nM
7,"Cc1ncc(-c2ccc(OC(C)C)cn2)c(N2CCC(C)(C)CC2)c1[C@H](OC(C)(C)C)C(=O)O [Example 314, (2S)-2-(tert-butoxy)-2-[4′-(4,4-dimethylpiperidin-1-yl)-6′-methyl-5-(propan-2-yloxy)-[2,3′-bipyridine]-5′-yl]acetic acid]",5 nM
8,"CCC(CC)COc1ccc(-c2cnc(C)c([C@H](OC(C)(C)C)C(=O)O)c2N2CCC(C)(C)CC2)nc1 [Example 359, (2S)-2-(tert-butoxy)-2-[4′-(4,4-dimethylpiperidin-1-yl)-5-(2-ethylbutoxy)-6′-methyl-[2,3′-bipyridine]-5′-yl]acetic acid]",2 nM
9,"CC1(C)CCN(c2c(-c3ccc(OCCc4ccc(F)cc4)cc3)cncc2[C@H](OC(C)(C)C)C(=O)O)CC1 [Example 200, (S)-2-(tert-Butoxy)-2-(4-(4,4-dimethylpiperidin-1-yl)-5-(4-(4-fluorophenethoxy)phenyl)pyridin-3-yl)acetic acid]",2 nM
10,"Cc1ncc(-c2ccc(OCCc3ccc(F)c(Cl)c3)cn2)c(N2CCC(C)(C)CC2)c1[C@H](OC(C)(C)C)C(=O)O [Example 307, (2S)-2-(tert-butoxy)-2-{5-[2-(3-chloro-4-fluorophenyl)ethoxy]-4′-(4,4-dimethylpiperidin-1-yl)-6′-methyl-[2,3′-bipyridine]-5′-yl}acetic acid]",1 nM
11,"Cc1ncc(-c2ccccc2C#N)c(N2CCC(C)(C)CC2)c1[C@H](OC(C)(C)C)C(=O)O [Example 153, (2S)-2-(tert-Butoxy)-2-[5-(2-cyanophenyl)-4-(4,4-dimethylpiperidin-1-yl)-2-methylpyridin-3-yl]acetic acid]",29 nM
12,"Cc1nc(-c2cn[nH]c2)c(-c2ccc(OCCc3ccc(F)cc3)cc2)c(N2CCC(C)(C)CC2)c1[C@H](OC(C)(C)C)C(=O)O [Example 51, (S)-2-(tert-Butoxy)-2-(4-(4,4-dimethylpiperidin-1-yl)-5-(4-(4-fluorophenethoxy)phenyl)-2-methyl-6-(1H-pyrazol-4-yl)pyridin-3-yl)acetic acid]",5 nM
13,"Cc1nc(Nc2ccc(F)cn2)c(-c2ccc(OCCc3ccc(F)cc3)cc2)c(N2CCC(C)(C)CC2)c1[C@H](OC(C)(C)C)C(=O)O [Example 83, (S)-2-(tert-Butoxy)-2-(4-(4,4-dimethylpiperidin-1-yl)-5-(4-(4-fluorophenethoxy)phenyl)-6-((5-fluoropyridin-2-yl)amino)-2-methylpyridin-3-yl)acetic acid]",5 nM
14,"Cc1ncc(-c2ccc(OCCc3ccc(F)cc3)nc2F)c(N2CCC(C)(C)CC2)c1[C@H](OC(C)(C)C)C(=O)O (single isomer, unassigned) [Example 263]",3 nM
15,"Cc1ccccc1-c1cnc(C)c([C@H](OC(C)(C)C)C(=O)O)c1N1CCC(C)(C)CC1 [Example 137, (2S)-2-(tert-Butoxy)-2-[4-(4,4-dimethylpiperidin-1-yl)-2-methyl-5-(2-methylphenyl)pyridin-3-yl]acetic acid]",53 nM
16,"Cc1nc(CN2CCC3(CCC3)CC2)c(-c2ccc(OCCc3ccc(F)cc3)c(F)c2)c(N2CCC(C)(C)CC2)c1[C@H](OC(C)(C)C)C(=O)O [Example 231, (S)-2-(6-((7-Azaspiro[3.5]nonan-7-yl)methyl)-4-(4,4-dimethylpiperidin-1-yl)-5-(3-fluoro-4-(4-fluorophenethoxy)phenyl)-2-methylpyridin-3-yl)-2-(tert-butoxy)acetic acid]",0.6 nM
17,"Cc1ncc(-c2ccc(OCc3c(Cl)cccc3Cl)cn2)c(N2CCC(C)(C)CC2)c1[C@H](OC(C)(C)C)C(=O)O [Example 355, (2S)-2-(tert-butoxy)-2-{5-[(2,6-dichlorophenyl)methoxy]-4′-(4,4-dimethylpiperidin-1-yl)-6′-methyl-[2,3′-bipyridine]-5′-yl}acetic acid]",1 nM
18,"Cc1ccc(F)cc1CCOc1ncc(-c2cnc(C)c([C@H](OC(C)(C)C)C(=O)O)c2N2CCC(C)(C)CC2)cc1F [Example 401, (2S)-2-(tert-butoxy)-2-[4-(4,4-dimethylpiperidin-1-yl)-5′-fluoro-6′-[2-(5-fluoro-2-methylphenyl)ethoxy]-6-methyl-[3,3′-bipyridine]-5-yl]acetic acid]",2 nM
19,"COc1cccc(COc2ccc(-c3cnc(C)c([C@H](OC(C)(C)C)C(=O)O)c3N3CCC(C)(C)CC3)nc2)c1 [Example 340, (2S)-2-(tert-butoxy)-2-[4′-(4,4-dimethylpiperidin-1-yl)-5-[(3-methoxyphenyl)methoxy]-6′-methyl-[2,3′-bipyridine]-5′-yl]acetic acid]",2 nM
20,"Cc1nc(Nc2ncccn2)c(-c2ccc(OCCc3ccc(F)cc3)c(F)c2)c(N2CCC(C)(C)CC2)c1[C@H](OC(C)(C)C)C(=O)O [Example 105, (S)-2-(tert-Butoxy)-2-(4-(4,4-dimethylpiperidin-1-yl)-5-(3-fluoro-4-(4-fluorophenethoxy)phenyl)-2-methyl-6-(pyrimidin-2-ylamino)pyridin-3-yl)acetic acid]",4 nM
21,"Cc1nc(-c2cncnc2)c(-c2ccc(OCCc3ccc(F)cc3)cc2)c(N2CCC(C)(C)CC2)c1[C@H](OC(C)(C)C)C(=O)O [Example 39, (S)-2-(tert-Butoxy)-2-(4-(4,4-dimethylpiperidin-1-yl)-5-(4-(4-fluorophenethoxy)phenyl)-2-methyl-6-(pyrimidin-5-yl)pyridin-3-yl)acetic acid]",3 nM
22,"COc1ccc(CCOc2ncc(-c3cnc(C)c([C@H](OC(C)(C)C)C(=O)O)c3N3CCC(C)(C)CC3)cc2F)c(C)c1 [Example 399, (2S)-2-(tert-butoxy)-2-[4-(4,4-dimethylpiperidin-1-yl)-5′-fluoro-6′-[2-(4-methoxy-2-methylphenyl)ethoxy]-6-methyl-[3,3′-bipyridine]-5-yl]acetic acid]",2 nM
23,"Cc1cccc(-c2cnc(C)c([C@H](OC(C)(C)C)C(=O)O)c2N2CCC(C)(C)CC2)c1F [Example 163, (2S)-2-(tert-Butoxy)-2-[4-(4,4-dimethylpiperidin-1-yl)-5-(2-fluoro-3-methylphenyl)-2-methylpyridin-3-yl]acetic acid]",6 nM
24,"Cc1ncc(-c2ccc3ccccc3n2)c(N2CCC(C)(C)CC2)c1[C@H](OC(C)(C)C)C(=O)O [Example 266, (S)-2-(tert-Butoxy)-2-(4-(4,4-dimethylpiperidin-1-yl)-2-methyl-5-(quinolin-2-yl)pyridin-3-yl)acetic acid]",11 nM
25,"Cc1ncc(-c2ncccn2)c(N2CCC(C)(C)CC2)c1[C@H](OC(C)(C)C)C(=O)O [Example 187, (2S)-2-(tert-Butoxy)-2-[4-(4,4-dimethylpiperidin-1-yl)-2-methyl-5-(pyrimidin-2-yl)pyridin-3-yl]acetic acid]",107 nM
26,"Cc1ncc(-c2ccc(OC(C)C(C)C)nc2)c(N2CCC(C)(C)CC2)c1[C@H](OC(C)(C)C)C(=O)O (stereo partly drawn) [Example 438, (2S)-2-tert-Butoxy-2-(4-(4,4-dimethylpiperidin-1-yl)-6-methyl-6′-(3-methylbutan-2-yloxy)-3, 3′-bipyridin-5-yl)acetic acid]",14 nM
27,"Cc1ncc(-c2cnc(OCCc3ccc(F)cc3)cn2)c(N2CCC(C)(C)CC2)c1[C@H](OC(C)(C)C)C(=O)O [Example 16, (S)-2-(tert-Butoxy)-2-(4-(4,4-dimethylpiperidin-1-yl)-5-(5-(4-fluorophenethoxy)pyrazin-2-yl)-2-methylpyridin-3-yl)acetic acid]",2 nM

# Same assay, conditions: MT-2 cells infected with NL-RLuc virus, 5 days of incubation, 10% FBS, at least 2 experiments
row,SMILES,EC50
1,"Cc1ncc(-c2cnc(NCCc3ccc(F)cc3)c(F)c2)c(N2CCC(C)(C)CC2)c1[C@H](OC(C)(C)C)C(=O)O [Example 416, (S)-2-(tert-Butoxy)-2-(4-(4,4-dimethylpiperidin-1-yl)-5′-fluoro-6′-((4-fluorophenethyl)amino)-6-methyl-[3, 3′-bipyridin]-5-yl)acetic acid]",0.6 nM
2,"Cc1ncc(-c2cnc(NCCc3ccc(F)cc3)c(F)c2)c(N2CCC(C)(C)CC2)c1[C@H](OC(C)(C)C)C(=O)O [Example 121, (S)-2-(tert-Butoxy)-2-(4-(4,4-dimethylpiperidin-1-yl)-5′-fluoro-6′-((4-fluorophenethyl)amino)-6-methyl-[3, 3′-bipyridin]-5-yl)acetic acid]",2 nM

# — US20200055839A1 (priority 2017, published 2020)
